“Also recorded” adds a separate entry of the source. Where only a bound is given, the exact number is not on record here.

In data set [1] the test system is Panc1 pancreatic cancer cells. Briefly: Cancer cell line growth inhibition assay. The class given is cell-based, human. The settings on record: for Inhibition of growth of Panc1 cells (in words): 3 days, concentrations up to 10 µM.
In data set [2] the test system is normal mobilised peripheral blood progenitor cells. The settings on record: listed as NSAH; cited from earlier work.

For the compound `O=C1Nc2ccccc2/C1=N\NC(=O)c1ccccc1O` [TP1, (E)-2-Hydroxy-N'-(2-oxoindolin-3-ylidene)benzohydrazide], in data set [1], the “Inhibition of growth of Panc1 cells (in words)” value (“Inhibition” for short) is recorded as “did not inhibit the growth”.

For the compound `O=C(N/N=C/c1cc(-c2ccccc2)ccc1O)c1ccccc1O` [TP2, (E)-2-Hydroxy-N'-((4-hydroxy-[1,1'-biphenyl]-3-yl)methylene)-benzohydrazide], the “Fold decrease in potency in cells on removal of the methoxy (TP2, 3 vs TP5, 6)” value in data set [1] (Panc1) is over 2 fold. For the compound `O=C(N/N=C/c1cc(-c2ccsc2)ccc1O)c1ccccc1O` [TP3, (E)-2-Hydroxy-N'-(2-hydroxy-5-(thiophen-3-yl)-benzylidene)-benzohydrazide], in data set [1] (Panc1), the “Fold decrease in potency in cells on removal of the methoxy (TP2, 3 vs TP5, 6)” value is listed as over 2 fold. In the case of `COc1ccc(-c2ccsc2)c(/C=N/NC(=O)c2ccccc2O)c1O` [TP6, (E)-2-Hydroxy-N'-(2-hydroxy-3-methoxy-6-(thiophen-3-yl)benzylidene)-benzohydrazide], the “Fold decrease in IC50 over lead compound NSAH (TP8)” value in data set [1] (Panc1) is over 2 fold. On to `Nc1ncnc2c1ncn2-c1ccc(/C=N/NC(=O)c2ccccc2O)cc1` [TP7, (E)-N'-(4–(6-amino-9H-purin-9-yl)benzylidene)-2-hydroxybenzohydrazide], for which, in data set [1], the “Inhibition” value was “did not inhibit the growth”. Turning to `O=C(N/N=C/c1c(O)ccc2ccccc12)c1ccccc1O` [TP8, (E)-2-Hydroxy-N'-((2-hydroxynaphthalen-1-yl)methylene)-benzohydrazide], in data set [2], the “Toxicity against normal mobilised peripheral blood progenitor cells” value is listed as “much less effective”. As for `COc1ccc(-c2cnc(-c3ccccc3O)s2)cc1` [TP9, 2–(5-(4-Methoxyphenyl)thiazol-2-yl)-phenol], the “Inhibition” value in data set [1] is “did not inhibit the growth; also recorded: ineffective”. On the same count and under the same terms, the same measure for `O=C(NNC(=O)c1c(O)ccc2ccccc12)c1cccnc1` [TP11, N'-(2-Hydroxy-1-naphthoyl)-nicotinohydrazide]: “did not inhibit the growth”; for `O=C(N/N=C/c1cccnc1)c1c(O)ccc2ccccc12` [TP12, (E)-2-Hydroxy-N'-(pyridin-3-ylmethylene)-1-naphthohydrazide]: “did not inhibit the growth”. `O=C(NNC(=O)c1ccccc1O)c1cccnc1` [TP13, N'-(2-Hydroxybenzoyl)-nicotinohydrazide]: the “Inhibition” value in data set [1] is “did not inhibit the growth”.

Source of the values: publication PMC6328008 (Journal of Enzyme Inhibition and Medicinal Chemistry, 2019).
